Counter-ions that a name gives are not always drawn.
Legend:
[1] = tested on: ileum shrinkage induced by histamine; experiment: inhibitory effect of the test compounds on the ileum shrinkage induced by histamine; type: cell-based, guinea pigs; settings: Cavia porcellus; test compound 10^-7 M; histamine 10^-5 M; isolated ileum, Magnus tank, Tyrode solution; read-out: Inhibition ratio against shrinkage by histamine
Protocol: (§1) Ileum samples removed from guinea pigs were suspended isotonically in a Magnus tank containing a 95% O2 and 5% CO2 saturated Tyrode solution to determine inhibitory effect of the test compounds (10^-7 M) on the ileum shrinkage induced by histamine (10^-5 M) or leukotoriene (10^-8 M). The inhibitory ratio (%) was determined by the following formula. [formula]

[2] = tested on: ileum shrinkage induced by leukotoriene; experiment: inhibitory effect of the test compounds on the ileum shrinkage induced by leukotriene; type: cell-based, guinea pigs; settings: Cavia porcellus; test compound 10^-7 M; leukotoriene 10^-8 M; isolated ileum, Magnus tank, Tyrode solution; read-out: Inhibition ratio against shrinkage by leukotriene
Protocol: as §1

Structure (SMILES) | inhibition at 0.1 µM [1] [%] | inhibition at 0.1 µM [2] [%]
C=CCc1c(OCCCN2CCC(OC(c3ccccc3)c3ccccc3)CC2)ccc2c(=O)cc(C(=O)OCCCC)oc12 [Example 41] | 31 | 31
C=CCc1c(OCCCN2CCC(OC(c3ccccc3)c3ccccc3)CC2)ccc2c(C)cc(=O)oc12 [Example 7] | 67 | 51
COC(=O)c1cc(=O)c2cc(C(C)C)cc(NC(=O)CCCN3CCC(OC(c4ccc(F)cc4)c4ccc(F)cc4)CC3)c2o1 [Example 60] | 58 | 37
C=CCc1c(OCC(O)CN2CCC(OC(c3ccc(Cl)cc3)c3ccccn3)CC2)ccc(C(C)=O)c1O (stereo not drawn) [Example 47] | 38 | 36
CCCc1c(OCC(O)CN2CCC(OC(c3ccc(F)cc3)c3ccc(F)cc3)CC2)ccc(C(C)=O)c1O (stereo not drawn) [Example 44, 1-{(3-(4-acetyl-3-hydroxy-2-n-propylphenoxy)-2-hydroxy]propyl}-4-[bis(4-fluorophenyl)methoxy]piperidine fumarate] | 43 | 35
COc1cc(C(C)=O)ccc1OCCCN1CCC(OC(c2ccccc2)c2ccccc2)CC1 [Example 2] | 96 | 30
CCCc1c(OCC(O)CN2CCC(OC(c3ccc(Cl)cc3)c3ccccn3)CC2)ccc(C(C)=O)c1O (stereo not drawn) [Example 45] | 40 | 30
COC(=O)c1ccc(OCCCN2CCC(OC(c3ccccc3)c3ccccc3)CC2)cc1 [Example 14] | 69 | 39
C=CCc1c(OCCCN2CCC(OC(c3ccc(Cl)cc3)c3ccccn3)CC2)ccc(C(C)=O)c1O (stereo not drawn) [Example 38] | 32 | 33
